Data taken from patent US10544095B2 (Pfizer Inc., priority 2015, dated 2020).

Biological target: hTDO2 in human glioblastoma A172 cells (Homo sapiens (Human), UniProt P48775)
Assay: Cellular assay for TDO2 activity determination in A172 cells
Format: cell-based
Details: overnight incubation, kynurenine absorbance at 480 nm
Experimental: The compounds of formula I inhibit the activity of human TDO2 in cells that constitutively express TDO2, such as A172 cells. A172 is a cell line derived from human brain glioblastoma cells. The cells are available from the American Type Culture Collection (ATCC®) as CRL-1620™.
The assay (adapted from Pilotte L et al., Proc Natl Acad Sci USA, 2012, 109(7), 2497-502) was performed in 96-well flat bottom plates seeded with human glioblastoma A172 cells, naturally expressing hTDO2 (prepared as described in Tilman et al., Mol Cancer, 2007, 17(6), 80), at a concentration of 1.25×10^4 cells/well in a final volume of 200 μL. To determine TDO, the cells were incubated overnight at 37° C. at 5% CO2 in IMDM (Invitrogen) supplemented with 2% FBS and 2% penicillin/streptomycin in the presence of the compounds of the present invention, at different concentrations.
The plates were then centrifuged 5 min at 1000 rpm, and 100 μL of the supernatant were collected in a conical plate, 30 μL of TCA 30% were added and a further centrifuged at 3000×g for 10 minutes. 100 μL of the supernatant were collected in a flat bottomed plate and 100 μL of 2% (w/v) 4-(dimethylamino)-benzaldehyde in acetic acid and incubated for 5 min at room temperature. Kynurenine concentrations were determined by measuring the absorbance at 480 nm. A standard curve was made with pure kynurenine. The TDO activity was measured as described above using ten serial concentrations of the compounds of the present invention. Data were fitted using the Prism™ software (GraphPad Software, Inc.) using standard parameters.

Sequence of hTDO2 in human glioblastoma A172 cells (P48775 whole entry): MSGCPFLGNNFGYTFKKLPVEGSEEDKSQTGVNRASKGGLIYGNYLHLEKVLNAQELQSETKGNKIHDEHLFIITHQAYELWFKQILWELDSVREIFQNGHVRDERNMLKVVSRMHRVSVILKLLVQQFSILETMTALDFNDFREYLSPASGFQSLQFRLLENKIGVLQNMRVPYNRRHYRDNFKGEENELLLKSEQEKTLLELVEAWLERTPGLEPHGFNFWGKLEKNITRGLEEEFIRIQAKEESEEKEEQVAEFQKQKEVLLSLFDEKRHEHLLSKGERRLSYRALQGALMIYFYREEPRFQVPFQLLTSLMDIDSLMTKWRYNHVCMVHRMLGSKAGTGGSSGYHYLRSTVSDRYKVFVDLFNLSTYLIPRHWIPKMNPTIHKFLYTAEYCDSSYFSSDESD

Structure (SMILES) | IC50 [nM]
CN(C)C(=O)n1cc(-c2ccc(S(=O)(=O)N3CCNCC3)cc2)c2ccc(F)cc21 [Example 47, 6-fluoro-N,N-dimethyl-3-(4-(piperazin-1-ylsulfonyl)phenyl)-1H-indole-1-carboxamide] | 9600
O=S(=O)(c1ccc(-c2c[nH]c3cc(F)ccc23)cc1F)N1CCNCC1 [Example 28, 6-fluoro-3-(3-fluoro-4-(piperazin-1-ylsulfonyl)-phenyl)-1H-indole] | 220
O=C(NCCNS(=O)(=O)c1ccc(-c2c[nH]c3cc(F)ccc23)cc1)N1CCOCC1 [Example 108, N-(2-(4-(6-fluoro-1H-indol-3-yl)phenylsulfonamido)ethyl)-morpholine 4-carboxamide] | 170
CS(=O)(=O)c1cccc(-c2c[nH]c3cc(F)ccc23)c1 [Example 31, 6-fluoro-3-(3-(methylsulfonyl)phenyl)-1H-indole] | 740
NC(=O)CCNS(=O)(=O)c1ccc(-c2c[nH]c3cc(F)ccc23)cc1C(F)(F)F [Example 168, 3-((4-(6-fluoro-1H-indol-3-yl)-2-(trifluoromethyl)phenyl)-sulfonamido)propanamide] | 270
N[C@H]1CN(C(=O)CCNS(=O)(=O)c2ccc(-c3c[nH]c4cc(F)ccc34)cc2)C[C@H]1F (single isomer, unassigned) [Example 172, (−)-N-(3-((3S.4R)-3-amino-4-fluoropyrrolidin-1-yl)-3-oxopropyl)-4-(6-fluoro-1H-indol-3-yl)benzenesulfonamide] | 957
Cn1cc(CN(CCO)S(=O)(=O)c2ccc(-c3c[nH]c4cc(F)ccc34)cc2)cn1 [Example 114, 4-(6-fluoro-1H-indol-3-yl)-N-(2-hydroxyethyl)-N-((1-methyl-1H-pyrazol-4-yl)methyl) benzenesulfonamide] | 91000
N[C@H]1CN(S(=O)(=O)c2ccc(-c3c[nH]c4cc(F)ccc34)cc2)C[C@H]1F (stereo in doubt) [Example 81, (+)-(cis)-4-fluoro-1-{[4-(6-fluoro-1H-indol-3-yl)phenyl]-sulfonyl}pyrrolidin-3-amine] | 230
O=S(=O)(c1ccc(-c2c[nH]c3cc(F)ccc23)cc1)N1CCNCC1CO (stereo not shown) [Example 13, (1-((4-(6-fluoro-1H-indol-3-yl)phenyl)sulfonyl)piperazin-2-yl)methanol] | 210
CN1CCN(C(=O)CCNS(=O)(=O)c2ccc(-c3c[nH]c4cc(F)ccc34)cc2)CC1 [Example 103, 4-(6-fluoro-1H-indol-3-yl)-N-(3-(4-methylpiperazin-1-yl)-3-oxopropyl) benzenesulfonamide] | 260
O=S(=O)(NCCc1ncc[nH]1)c1ccc(-c2c[nH]c3cc(F)ccc23)cc1 [Example 73, N-(2-(1H-imidazol-2-yl)ethyl)-4-(6-fluoro-1H-indol-3-yl)benzenesulfonamide] | 150
C[C@@H]1CN(S(=O)(=O)c2ccc(-c3c[nH]c4cc(F)ccc34)cc2)C[C@@H](C)N1 [Example 14, (3R,5R)-3-[4-(3,5-dimethyl-piperazine-1-sulfonyl)-phenyl]-6-fluoro-1H-indole] | 190
C[S+]([O-])CCNS(=O)(=O)c1ccc(-c2c[nH]c3cc(F)ccc23)cc1 (single isomer, unassigned; (-)) [Example 159, (−)-4-(6-fluoro-1H-indol-3-yl)-N-(2-(methylsulfinyl)-ethyl)benzenesulfonamide] | 220
CCc1cc(-c2c[nH]c3cc(F)ccc23)ccc1S(=O)(=O)NCCC(N)=O [Example 162, 3-(2-ethyl-4-(6-fluoro-1H-indol-3-yl)phenylsulfonamido)-propanamide] | 405
O=C(CCNS(=O)(=O)c1ccc(-c2c[nH]c3cc(F)ccc23)cc1)N1CCNCC1 [Example 102, 4-(6-fluoro-1H-indol-3-yl)-N-(3-oxo-3-(piperazin-1-yl)propyl) benzenesulfonamide] | 260
Cc1ccc(-c2c[nH]c3cc(F)ccc23)cc1S(=O)(=O)NCCN [Example 56, N-(2-aminoethyl)-5-(6-fluoro-1H-indol-3-yl)-2-methylbenzenesulfonamide] | 670
CN1C(=O)CN(S(=O)(=O)c2ccc(-c3c[nH]c4cc(F)ccc34)cc2)CC1=O [Example 145, 4-((4-(6-fluoro-1H-indol-3-yl)phenyl)sulfonyl)-1-methylpiperazine-2,6-dione] | 3610

Further compounds by falling IC50, results first:

IC50 [nM] | Structure (SMILES)
4060 | CC(C)Oc1cc(-c2c[nH]c3cc(F)ccc23)ccc1S(=O)(=O)NCCC(N)=O [Example 166, 3-((4-(6-fluoro-1H-indol-3-yl)-2-isopropoxyphenyl)-sulfonamido)propanamide]
3700 | N#Cc1cc(S(=O)(=O)N2CCNCC2)ccc1-c1c[nH]c2cc(F)ccc12 [Example 37, 2-(6-fluoro-1H-indol-3-yl)-5-(piperazin-1-ylsulfonyl)benzonitrile]
2900 | NCCNS(=O)(=O)c1cc(-c2c[nH]c3cc(F)ccc23)ccc1O [Example 39, N-(2-aminoethyl)-5-(6-fluoro-1H-indol-3-yl)-2-hydroxy-benzenesulfonamide]
1400 | Cc1cc(S(=O)(=O)N2CCNCC2)ccc1-c1c[nH]c2cc(F)ccc12 [Example 25, 6-fluoro-3-(2-methyl-4-(piperazin-1-ylsulfonyl)-phenyl)-1H-indole]
1320 | NCCCN1CCN(S(=O)(=O)c2ccc(-c3c[nH]c4cc(F)ccc34)cc2)CC1=O [Example 152, 1-(3-aminopropyl)-4-((4-(6-fluoro-1H-indol-3-yl)phenyl-)sulfonyl)piperazin-2-one]
910 | COc1ccc(-c2c[nH]c3cc(F)ccc23)cc1S(=O)(=O)NCCN [Example 33]
449 | NC(=O)CCNS(=O)(=O)c1ccc(-c2c[nH]c3cc(F)ccc23)cc1CC(F)F [Example 175, 3-((2-(2,2-difluoroethyl)-4-(6-fluoro-1H-indol-3-yl)-phenyl)sulfonamido)propanamide]
411 | CS(=O)(=O)c1ccc(-c2c[nH]c3cc(F)ccc23)cc1CN [Example 178, (5-(6-fluoro-1H-indol-3-yl)-2-(methylsulfonyl)phenyl)methanamine]
390 | CC(NS(=O)(=O)c1ccc(-c2c[nH]c3cc(F)ccc23)cc1)c1nncn1C (stereo not shown) [Example 85, 4-(6-fluoro-1H-indol-3-yl)-N-[1-(4-methyl-4H-1,2,4-triazol-3-yl)ethyl]benzenesulfonamide]
383 | N[C@@H]1CN(C(=O)CCNS(=O)(=O)c2ccc(-c3c[nH]c4cc(F)ccc34)cc2)C[C@H]1F [Example 174, (+)-N-(3-((3R,4R)-3-amino-4-fluoropyrrolidin-1-yl)-3-oxopropyl)-4-(6-fluoro-1H-indol-3-yl)benzenesulfonamide]
283 | O=S(=O)(NCCO)c1ccc(-c2c[nH]c3cc(F)ccc23)c(Cl)c1 [Example 158, 3-chloro-4-(6-fluoro-1H-indol-3-yl)-N-(2-hydroxyethyl) benzenesulfonamide]
270 | O=C(CCNS(=O)(=O)c1ccc(-c2c[nH]c3cc(F)ccc23)cc1)N1CCOCC1 [Example 106, 4-(6-fluoro-1H-indol-3-yl)-N-(3-morpholino-3-oxopropyl)-benzenesulfonamide]
200 | Cc1nnc(CNS(=O)(=O)c2ccc(-c3c[nH]c4cc(F)ccc34)cc2)o1 [Example 89, 4-(6-fluoro-1H-indol-3-yl)-N-((5-methyl-1,3,4-oxadiazol-2-yl)methyl) benzenesulfonamide]
180 | NC(=O)C1CN(S(=O)(=O)c2ccc(-c3c[nH]c4cc(F)ccc34)cc2)C1 [Example 67, 1-((4-(6-fluoro-1H-indol-3-yl)phenyl)sulfonyl)azetidine-3-carboxamide]
171 | C[S+]([O-])CCNS(=O)(=O)c1ccc(-c2c[nH]c3cc(F)ccc23)cc1 (single isomer, unassigned; (+)) [Example 160, (+)-4-(6-fluoro-1H-indol-3-yl)-N-(2-(methylsulfinyl)-ethyl) benzenesulfonamide]
161 | CN(CC(O)c1cnccn1)S(=O)(=O)c1ccc(-c2c[nH]c3cc(F)ccc23)cc1 (stereo not shown) [Example 135, 4-(6-fluoro-1H-indol-3-yl)-N-(2-hydroxy-2-(pyrazin-2-yl)ethyl)-N-methylbenzene-sulfonamide]
160 | O=S(=O)(c1ccc(-c2c[nH]c3cc(F)ccc23)cc1)N1CC(O)C1 [Example 65, 1-((4-(6-fluoro-1H-indol-3-yl)phenyl)sulfonyl)azetidin-3-ol]
156 | CN(CC(O)c1cccnn1)S(=O)(=O)c1ccc(-c2c[nH]c3cc(F)ccc23)cc1 (stereo not shown) [Example 121, 4-(6-fluoro-1H-indol-3-yl)-N-(2-hydroxy-2-(pyridazin-3-yl)ethyl)-N-methylbenzene-sulfonamide]
140 | O=S(=O)(c1ccc(-c2c[nH]c3cc(F)ccc23)cc1)N1CCNC(CO)C1 (stereo not shown) [Example 12, (4-((4-(6-fluoro-1H-indol-3-yl)phenyl)sulfonyl)piperazin-2-yl)-methanol]
96 | O=S(=O)(c1ccc(-c2c[nH]c3cc(F)ccc23)cc1)N1C[C@@H](O)[C@H](O)C1 [Example 74, (3R,4R)-1-((4-(6-fluoro-1H-indol-3-yl)phenyl)-sulfonyl)pyrrolidine-3,4-diol]
